Calls of active or inactive are those of the source. How the calls were made is not given here.
Columns and labels:
[1] = inhibitors of PAF-induced NFkB signaling in CF airway cells, dose response, cell-based, uHTS hits, panel, cytotoxicity readout (AID 624344); details: CF bronchial epithelial cells, PAF-induced NFkB reporter inhibition; with PAF, mean of runs
Cytotoxicity = assay: as above; details: CF bronchial epithelial cells, mean of runs

Structure (SMILES) | IC50 [1] | IC50 (Cytotoxicity)
CN(c1cccc(Cl)c1)S(=O)(=O)c1cccc(C(=O)Nc2nc3ccccc3[nH]2)c1 | 6.19 µM | 12.2 µM
CN(C)c1ccc(C(C(=O)NCc2ccccc2)N(Cc2ccco2)C(=O)c2snc(C(N)=O)c2N)cc1 (centres undefined) | 3.08 µM | 6.97 µM
c1cc(-c2nnc3sc(C4CCCCC4)nn23)ccn1 | 3.45 µM | > 79 µM (inactive)
COc1ccc(-c2cc(=O)oc3cc(O)ccc23)cc1 | 1.89 µM | 46.9 µM
C=C1C(=O)O[C@@H]2[C@H]3O[C@]3(C)CC/C=C(\C)CC[C@@H]12 | 3.59 µM | 18.1 µM
N#CC(C#N)c1ccnc2ccccc12 | 3.17 µM | 28.3 µM
O=[N+]([O-])c1ccc(Oc2ccc(F)cc2Br)c2ccncc12 | 3.97 µM | 38.6 µM
CC(C)CNC(=O)c1coc(=O)c(Br)c1 | 4.35 µM | 8.73 µM
COc1ccc(CNc2ncnc3ccccc23)cc1 | 15.3 µM | 59.5 µM (inactive)
CC1CCc2sc3ncnc(N4CCOCC4)c3c2C1 (centres undefined) | 5.9 µM | 7.61 µM
Cn1c(SC2=CS(=O)(=O)c3ccccc32)nc2ccccc21 | 1.83 µM | 7.01 µM
c1ccc2c(c1)Nc1ccncc1S2 | 1.46 µM | 44.1 µM
Cc1ccc(CNc2ncnc3ccc(-c4ccc(CO)o4)cc23)o1 | 0.898 µM | 3.77 µM
CC(=C/c1ccccc1)/C=N/n1c(-c2ccncc2)n[nH]c1=S | 0.43 µM | 65.2 µM (inactive)
COc1cc(C2c3cc4c(c(O)c3CC3COC(=O)C32)OCO4)cc(OC)c1OC (centres undefined) | inactive | > 79 µM (inactive)
Cc1cccc(NC(=O)c2nc(S(=O)(=O)Cc3ccccc3)ncc2Cl)c1 | 2.51 µM | 3.39 µM
Cc1ccc(S(=O)(=O)/N=C(\CCl)N2CCOCC2)cc1 | 2.38 µM | 9.62 µM

Source: PubChem BioAssay AID624344 (Sanford-Burnham Center for Chemical Genomics, 2012)
